Assay results published in patent US8609682B2 (priority 2008, dated 2013).

Key:
[1] = biological target: T1, mu/kappa opioid heterodimers (Mus musculus, UniProt P33534+P42866); assay type: cell-based, murine
T1 construct: expressed in transfected cells

mu opioid receptor = biological target: T2, mu opioid receptor (Mus musculus, UniProt P42866); assay: Ca2+ release, HEK-293 mu cells; assay type: cell-based, murine
T2 construct: expressed in transfected cells

[2] = biological target: mu/delta opioid receptors (Mus musculus, UniProt P32300+P42866); conditions: Mu/delta cells
mice [3] = assay: Radiant heat tail flick antinociception; assay type: in vivo, mouse
mice [4] = conditions: i.c.v. morphine-infused mice; cited from earlier work
mice [5] = conditions: chronic i.c.v. morphine; cited from earlier work
mice [6] = assay: Conditioned place preference (CPP)
[7] = biological target: kappa/delta opioid receptors (Mus musculus, UniProt P32300+P33534)
delta opioid receptor = delta opioid receptor (Mus musculus, UniProt P32300); conditions: Delta cells
delta opioid receptor, sequence (P32300 whole entry): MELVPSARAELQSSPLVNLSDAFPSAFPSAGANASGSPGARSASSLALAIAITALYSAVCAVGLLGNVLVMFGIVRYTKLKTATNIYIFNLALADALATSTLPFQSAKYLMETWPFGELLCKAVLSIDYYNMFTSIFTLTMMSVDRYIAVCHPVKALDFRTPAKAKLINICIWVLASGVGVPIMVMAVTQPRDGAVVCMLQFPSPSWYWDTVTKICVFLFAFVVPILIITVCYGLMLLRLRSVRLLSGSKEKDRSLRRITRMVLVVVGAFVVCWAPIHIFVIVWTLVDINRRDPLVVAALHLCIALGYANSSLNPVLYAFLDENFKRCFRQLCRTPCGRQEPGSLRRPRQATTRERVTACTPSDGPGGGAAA

mu/delta opioid receptors, sequence (P32300 whole entry): as above
mu/delta opioid receptors, sequence (P42866 whole entry): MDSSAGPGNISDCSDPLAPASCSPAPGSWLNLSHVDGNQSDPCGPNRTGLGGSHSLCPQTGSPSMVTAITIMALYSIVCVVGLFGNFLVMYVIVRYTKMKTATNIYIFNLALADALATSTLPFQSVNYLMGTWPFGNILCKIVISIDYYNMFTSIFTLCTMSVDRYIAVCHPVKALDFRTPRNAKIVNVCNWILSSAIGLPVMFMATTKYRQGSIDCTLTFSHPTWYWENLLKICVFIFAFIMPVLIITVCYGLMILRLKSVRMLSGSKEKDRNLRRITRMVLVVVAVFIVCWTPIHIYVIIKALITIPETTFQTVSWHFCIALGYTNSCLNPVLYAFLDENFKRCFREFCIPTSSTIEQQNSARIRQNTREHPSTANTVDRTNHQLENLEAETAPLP
T2 sequence (P42866 whole entry): as above
T1 sequence (P42866 whole entry): as above
T1 sequence (P33534 whole entry): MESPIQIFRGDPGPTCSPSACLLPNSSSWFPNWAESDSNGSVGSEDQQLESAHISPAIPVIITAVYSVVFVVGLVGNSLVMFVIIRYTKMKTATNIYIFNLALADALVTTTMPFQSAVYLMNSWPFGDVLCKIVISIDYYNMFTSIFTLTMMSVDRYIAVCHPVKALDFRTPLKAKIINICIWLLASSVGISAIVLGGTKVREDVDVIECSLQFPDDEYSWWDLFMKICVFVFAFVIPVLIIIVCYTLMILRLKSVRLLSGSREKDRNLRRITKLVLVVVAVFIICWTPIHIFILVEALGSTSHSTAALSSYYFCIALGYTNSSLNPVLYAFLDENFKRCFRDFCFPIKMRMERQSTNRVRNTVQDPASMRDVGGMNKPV
kappa/delta opioid receptors, sequence (P33534 whole entry): as above
kappa/delta opioid receptors, sequence (P32300 whole entry): as the sequence (P32300 whole entry) above

With `C[C@@H](NC(=O)[C@@H](N)Cc1ccc(O)cc1)C(=O)NCC(=O)N(C)[C@@H](Cc1ccccc1)C(=O)NCCO` [DAMGO, reference compound] the “AUCpeak (RFU X seconds), Ca2+ release” value [1] was 5562 ± 668, the “AUCpeak (RFU X seconds), Ca2+ release” value (mu opioid receptor) was 9989 ± 702 RFU X seconds and the “AUCpeak (RFU X seconds), Ca2+ release” value [2] was 12054 ± 1281 RFU X seconds.

In the case of `Oc1ccc2c3c1O[C@H]1c4[nH]c5ccccc5c4C[C@@]4(O)[C@@H](C2)N(CC2CC2)CC[C@]314` [NTI, naltrindole, reference compound], the “peak time of antagonist effect” value (mice [3]) is reported as 20 min.

In the case of `CN1CC[C@]23c4c5ccc(O)c4O[C@H]2[C@@H](O)C=C[C@H]3[C@H]1C5` [morphine, reference compound], the “time of peak antinociception” value (mice [3]; i.v., preliminary studies, ICR mice) is given as 15 min, the “ED50 (95% CI)” value (mice [3]; i.v., tail flick) is given as 420 (378-469) nmol and the “naloxone-induced withdrawal jumping, previous studies” value (mice [4]) is given as 100 jumps in 10 min. For the same molecule, the “development of tolerance, previous studies, same protocol” value (mice [5]) was 6 fold, the place preference (mice [6]; 1200 nmol/kg) was “strong place preference” and the “place preference with naloxone” value (mice [6]; morphine 1200 nmol/kg plus naloxone 300 nmol/kg) was “can be blocked by naloxone”.

In the case of `Oc1ccc2c3c1O[C@H]1c4[nH]c5c(c4C[C@@]4(O)[C@@H](C2)N(CC2CC2)CC[C@]314)C[C@@]1(O)[C@H]2Cc3ccc(O)c4c3[C@@]1(CCN2CC1CC1)[C@H]5O4` [norBNI, norbinaltorphimine, reference compound], the “peak time of antagonist effect” value (mice [3]) is reported as 20 min.

For “Cys2-Tyr3-Orn5-Pen7-amide [CTOP, reference compound]”, the “peak time of antagonist effect” value (mice [3]) was 20 min.

With DPDPE the “AUCpeak (RFU X seconds), Ca2+ release” value [7] was 10153 ± 1479, the “AUCpeak (RFU X seconds), Ca2+ release” value [2] was 10504 ± 969 RFU X seconds and the “AUCpeak (RFU X seconds), Ca2+ release” value (delta opioid receptor) was 8319 ± 1117 RFU X seconds.
